The source of these data is patent US7294643B2, “UK-1 analogues: methods of preparation and use” (Board of Regents, The University of Texas System, priority 2002, dated 2007).

The structures appear in SMILES notation. Like-named read-outs stand apart in the source and are kept apart here.

The nature of data set [1]: alamarBlue cytotoxicity, range over three cell lines. It counts as cell-based. The following applies: human; range of concentrations required to inhibit growth of MCF-7, HT-29, and PC-3 cells by 50%. How it is done: (§1) Cytotoxicity Assays. Cell culture cytotoxicity assays were performed using the. alamarBlue method, as described by Ahmed et al., J. Immun. Methods 1994, 170, 211-224, which is incorporated herein by reference. Briefly, aliquots of 100 μL of cell suspension (1.0-2.5×10^3 cells) was placed in 96-well microtiter plates in an atmosphere of 5% CO2 at 37° C. After 24 hours, 100 μL of culture medium and 2 μL of compound in vehicle (culture media with 40% pyridine) or vehicle alone were added, and the plates incubated an additional 72 hours. The final pyridine concentration in all cases was 0.4%; at this pyridine concentration there was no affect on the growth of cells compared to cells in culture media without added pyridine. […] After the culture media had been removed from each well, 200 μL of fresh media and 20 μL of 90% alamarBlue reagent were added, followed by an additional 6 h incubation. The fluorescent intensity was measured using a Spectrafluor Plus plate reader with excitation at 530 nm and emission at 590 nm. Results are reported as IC50 values, the average concentration required to produce a decrease of fluorescent intensity of 50% relative to vehicle-treated controls in two separate determinations.

Data set [2] concerns double-stranded DNA oligonucleotide. As to the kind of experiment: DNA binding by ESI-MS. Also noted: key: MetalDepend.: all ligand-DNA complex ions also contained a metal ion.; None: no ligand-DNA complex ions observed.; MetalIndepend.: ligand-DNA and ligand-DNA-metal ion complex ions observed. The following applies: ligand-DNA complex ions, presence or absence of added NiCl2.

For data set [3], the system named is Staphylococcus aureus ATCC 29213. Description: Antimicrobial bioassay, S. aureus. It counts as cell-based. The following applies: Staphylococcus aureus, ATCC29213. How it is done:
(§2) Antimicrobial Bioassay: Staphylococcus aureus ATCC 29213 and methicillin-resistant S. aureus ATCC 43300 (MRS) were obtained from the American Type Culture Collection (Rockville, Md.) and stored on agar slants at 4° C. until needed. Susceptibility testing was performed using a modified version of the NCCLS methods: “Methods for Dilution Antimicrobial Susceptibility Tests for Bacteria that Grow Aerobically,” M7-A4, Vol. 17, No. 2, NCCLS, (1997) and “Reference Method for Broth Dilution Antifungal Susceptibility Testing of Yeasts; Approved Standard,” M27-A, Vol. 17, No. 9, NCCLS, (1997), both of which are incorporated herein by reference. Microorganisms were subcultured prior to the assay by suspending cells from the slant in Eugon broth (BBL, Maryland) and incubating for 24 hours at 37° C. Inocula were prepared by diluting the subcultured organism in its incubation broth after comparison to the 0.5 McFarland Standard (a BaSO4 suspension) to afford final inocula ranges of S. aureus: 1.0-5.0×10^5 and MRS: 0.2-6.0×10^5 CFU/ml. Test compounds were dissolved in DMSO, serially-diluted using normal saline, and transferred in duplicate to 96 well flat-bottomed microtiter plates. The microbial inocula were added to the samples to achieve a final volume of 200 μl and final compound concentrations starting with 50 μg/ml. Drug [Ciprofloxacin (ICN Biomedicals, Ohio)] as well as growth and blank (media only) controls were added to each test plate. Plates were read at 630 nm using the EL-340 Biokinetics Reader (Bio-Tek Instruments, Vermont) prior to and after incubation at 37° C. for 24 hours. Percent growth was calculated and plotted versus concentration to afford the IC50, or sample concentration that affords 50% growth of the organism relative to controls.

The test system of data set [4] is methicillin-resistant S. aureus ATCC 43300. As to the kind of experiment: Antimicrobial bioassay, methicillin-resistant S. aureus. The following applies: Staphylococcus aureus, ATCC43300. It counts as cell-based, Staphylococcus aureus. The method, then:
as §2

The nature of data set [5]: Metal ion binding by continuous variation, Mg2+. To be noted: for Association constant for metal ion binding: Mg^2+, methanol, 1:1 complex. How it is done: (§3) Previous work indicated the metal ion binding mechanism of UK-1, so the method of continuous variation was used to determine the ability of selected UK-1analogues to bind a variety of metal ions. Methanolic solutions of UK-1 or UK-1 analogues and metal ion salts [Ca(NO3)2, Mg(NO3)2, Zn(NO3)2, or Fe(NO3)3] at various molar ratios, and 20 μM combined total concentration, were prepared and the absorbance at 418 nm was determined. […] Compound 2.1 does bind with Ca^2+ and Zn^2+ better than UK-1.
(§4) Continuous variation plots. A 100 μM solution of UK-1 or analogue and 100 AM solutions of Ca(NO3)2, Mg(NO3)2, Zn(NO3)2, or Fe(NO3)3 were prepared in methanol. From these stock solutions, 15 samples (1 mL) of varying mole fraction of the metal ion were prepared at a constant, combined concentration of 20 μM for the ligand and the metal ion. The change in absorbance was monitored from 500 to 200 nm for each sample using as a reference a 1 mL solution containing the same concentration of ligand as the sample being measured but without the metal ion. The maximum absorbance change was typically around 418 nm but varied somewhat for each metal ion. The absorbance at 418 nm was plotted as a function of the mole fraction of the metal ion and the maximum absorbance change was determined. The absorbance of a sample containing the metal ion concentration corresponding to this maximum change and a 15 fold excess of metal ion at this ligand concentration, subtracted from a reference containing the same concentration of ligand but no metal ion was used to normalize the curve and obtain the conditional formation constant as described in the paper to Likussar, W.; Boltz, D. F. Anal. Chem. 1971, 43, 1265-1272, which is incorporated herein by reference.

The next data set concerns HL60 cells. Description: alamarBlue cytotoxicity assay, HL60. It counts as cell-based, human. The following applies: Homo sapiens. The method, then:
as §1
On the technique in general: Alamar Blue is a resazurin reagent that responds to reducing activity.

Data set [6] can be described thus: alamarBlue cytotoxicity, range over four cell lines. It counts as cell-based. To be noted: human. The method, then: as §1, with “hours.” for “hours. The final pyridine concentration in all cases was 0.4%; at this pyridine concentration there was no affect on the growth of cells compared to cells in culture media without added pyridine.”, “nm.” for “nm. Results are reported as IC50 values, the average concentration required to produce a decrease of fluorescent intensity of 50% relative to vehicle-treated controls in two separate determinations.”

Another data set has as its system PC-3 cells. As to the kind of experiment: alamarBlue cytotoxicity assay, PC-3. It counts as cell-based, human. To be noted: Homo sapiens, PC-3, 72 h, PC-3, alamarBlue. How it is done: as §1
A further data set concerns HT-29 cells. As to the kind of experiment: alamarBlue cytotoxicity assay, HT-29. It counts as cell-based. To be noted: Homo sapiens; HT-29, alamarBlue, 72 h. The method, then:
as §1

For the next data set, the system named is MCF-7 cells. As to the kind of experiment: alamarBlue cytotoxicity assay, MCF-7. It counts as cell-based. The following applies: Homo sapiens, MCF7; MCF-7, alamarBlue, 72 h. The method, then:
as §1

The nature of data set [7]: Metal ion binding by continuous variation, Zn2+. The following applies: for Association constant for metal ion binding: Zn^2+, methanol, 1:1 complex. The method, then:
as §3, §4

Data set [8] is described as follows: Metal ion binding by continuous variation, Ca2+. To be noted: Ca^2+, methanol, 1:1 complex. How it is done: as §3, §4
A short description of data set [9]: Metal ion binding by continuous variation, Fe3+. To be noted: Fe^3+, methanol, 1:1 complex. How it is done:
as §3, §4

The next data set concerns Cryptococcus neoformans. Description: Antimicrobial bioassay, Cryptococcus neoformans. It counts as cell-based.
A further data set deals with Candida albicans. As to the kind of experiment: Antimicrobial bioassay, Candida albicans. It counts as cell-based.
In a further data set the test system is Pseudomonas aeruginosa. As to the kind of experiment: Antimicrobial bioassay, P. aeruginosa. It counts as cell-based. To be noted: P. aeruginosa.
Data set [10] deals with gram-positive or gram negative bacteria. The following applies: cited from earlier work.
The test system of the next data set is yeast, or fungi. The following applies: cited from earlier work.
[11] abbreviates: 50% growth of test organism, NA = no activity observed at concentrations up to 50 μg/mL, read-out: Antibacterial IC50 S. aureus.
The mark [12] stands for this setting: 50% growth of test organism, NA = no activity observed at concentrations up to 50 μg/mL, read-out: Antibacterial IC50 Meth-resist S. aureus.
The mark [13] stands for this setting: Methacilline-resistant Staph. Aureus, growth inhibited by 50%, read-out: Staph. aureus IC50.

With `O=C(O)c1cn(C2CC2)c2cc(N3CCNCC3)c(F)cc2c1=O` [Ciprofloxacin], the IC50 – broadly, the concentration that inhibits the measured activity by half – at 72 h in data set [1] is > 100 µM. Moreover, in data set [2], the “DNA-Binding ESI-MS” value is “MetalIndepend.^f”. The IC50 in [3] (setting [11]) worked out at 0.45 µM; in data set [4] (setting [12]), 0.45 µM; in [4] (setting [13]), 0.45 µg/mL.

Turning to `COC(=O)c1cccc2[nH]c(-c3cccc4oc(-c5ccccc5O)nc34)nc12` [Compound 2.1, Methyl 2-[2-(2-hydroxyphenyl)-1,3-benzoxazol-4-yl]-1H-benz imidazole-4-carboxylate], the “Association constant for metal ion binding” value in [5] stood at 40000 M⁻¹; in data set [7], 3.2e+06 M⁻¹; in data set [8], 100000 M⁻¹; in [9] it was 10000 M⁻¹. The IC50 in the data set on HL60 cells (HL-60, 72 h, HL60, alamarBlue, 72 h) was 70 µM; in the data set on PC-3 cells it was > 100 µM; in the data set on HT-29 cells, > 100 µM; in the data set on MCF-7 cells, > 100 µM. The IC50 at 72 h in [6] is ≥ 70 µM.

Regarding `COC(=O)c1cccc2oc(-c3ccccc3OCc3ccccc3)nc12` [Compound 2.5, Methyl 2-[2-(benzyloxy)phenyl]-1,3-benzoxazole-4-carboxylate], in data set [6], the IC50 at 72 h was > 100 µM.

Regarding `O=C(O)c1cccc2oc(-c3ccccc3OCc3ccccc3)nc12` [Compound 2.6, 2-[2-(benzyloxy)phenyl]-1,3-benzoxazole-4-carboxylic acid], the IC50 at 72 h in data set [1] and in [6] was > 100 µM throughout. Further, in data set [2], the “DNA-Binding ESI-MS” value is listed as “MetalIndepend.^f”. Besides, the IC50 in data set [3] (setting [11]) worked out at 43 µM; in [4] (setting [12]), 29 µM; in data set [4] (setting [13]), 29 µg/mL.

`O=C(O)c1cccc2[nH]c(-c3ccccc3OCc3ccccc3)nc12` [Compound 2.9, 2-[2-(benzyloxy)phenyl]-1H-benzimidazole-4-carboxylic acid]: the IC50 at 72 h in data set [6] was > 100 µM. Besides, the IC50 in data set [3] (setting [11]) and in data set [4] (setting [12]) was 102 µM in each case.

Turning to `COC(=O)c1cccc2oc(-c3ccccc3O)nc12` [Compound 2.13, Methyl 2-(2-hydroxyphenyl)-benzoxazole-4-carboxylate], the IC50 is > 50 µg/mL with Cryptococcus neoformans; 5.7 µM in the data set on HL60 cells (HL-60, HL60); 0.88 µM in the data set on PC-3 cells; 9.1 µM in the data set on HT-29 cells; 1.5 µM in the data set on MCF-7 cells; > 50 µg/mL in the data set with Candida albicans. Moreover, the IC50 in the data set on Pseudomonas aeruginosa is > 50 µg/mL; in [3] (S. aureus, read-out: IC50), > 50 µg/mL; in data set [4] (setting [13]), > 50 µg/mL. Also, the “Association constant for metal ion binding” value in data set [5] was 320000 M⁻¹; in data set [7], 1.3e+06 M⁻¹; in [8], 6300 M⁻¹; in data set [9], 7900 M⁻¹. Further, in data set [6], the IC50 at 72 h was in the range of 0.88 to 9.1 µM. Further, the “DNA-Binding ESI-MS” value in [2] is “MetalDepend.^d”.

As for `COC(=O)c1cccc2nc(-c3ccccc3O)oc12` [Compound 2.16, Methyl 2-(2-Hydroxy-phenyl)-benzooxazole-7-carboxylate], the IC50 at 72 h in data set [6] was > 100 µM.

Turning to `Oc1ccccc1-c1nc2ccccc2o1` [Compound 2.17, 2-(2′-hydroxyphenyl)benzoxazole], the “Mg^2+ ion complexation” value in [5] (result in words) is “does not appear to complex Mg^2+ ions”. The IC50 at 72 h in data set [6] was > 100 µM. For the same compound, the “Zn^2+ ion complexation” value in data set [7] (result in words) is “does appear to form complexes with Zn^2+”.

On to `O=C(O)c1cccc2oc(-c3cccc4oc(-c5ccccc5O)nc34)nc12` [DMUK-1], for which the “activity against Gram-positive and Gram-negative bacteria” value in data set [10] was “have shown activity”.

Take `COC(=O)c1cccc2oc(-c3cccc4oc(-c5ccccc5OC)nc34)nc12` [MUK-1]: in [10], the “activity against Gram-positive and Gram-negative bacteria” value is listed as “have shown activity”. Further, the “activity against yeast and filamentous fungi” value in the data set with yeast, or fungi is “active”.

In the case of `Oc1ccccc1-c1nc2ccccc2o1` [drawing 10], in [1], the IC50 at 72 h was > 100 µM. The “DNA-Binding ESI-MS” value in data set [2] was “None^e”. For the same compound, the IC50 in data set [4] (setting [13]) is > 50 µg/mL.
